Results taken from ChEMBL document CHEMBL1137065, “Identification of peptidomimetic HTLV-I protease inhibitors containing hydroxymethylcarbonyl (HMC) isostere as the transition-state mimic” (Bioorg Med Chem Lett, 2004).
Starred links: 1 amine or outer side, 2 acyl side, 3 side chain; linkers in the order of their positions; H or OH if unused. Non-standard residues stand in square brackets, D forms with d. Residues, ends and D or L forms follow the SMILES beside them. X1 = O=C(C(O)[C@H](Cc1ccccc1)N[*:1])[*:2]; X2 = CC(C)C[C@H](N[*:1])C(O)C(=O)[*:2]; Thz(5,5-Me2) = CC1(C)SCN[C@@H]1C(=O)O

Columns and labels:
[1] = biological target: T1, Gag-Pro polyprotein (Human T-cell leukemia virus 1 (strain Japan ATK-1 subtype A) (HTLV-1)) (UniProt P10274); test: Percent inhibition of synthesized human T-cell leukemia virus type I (HTLV-1) protease was determined at 100 uM concentration; settings: human T-cell leukemia virus type 1
T1 sequence (whole entry): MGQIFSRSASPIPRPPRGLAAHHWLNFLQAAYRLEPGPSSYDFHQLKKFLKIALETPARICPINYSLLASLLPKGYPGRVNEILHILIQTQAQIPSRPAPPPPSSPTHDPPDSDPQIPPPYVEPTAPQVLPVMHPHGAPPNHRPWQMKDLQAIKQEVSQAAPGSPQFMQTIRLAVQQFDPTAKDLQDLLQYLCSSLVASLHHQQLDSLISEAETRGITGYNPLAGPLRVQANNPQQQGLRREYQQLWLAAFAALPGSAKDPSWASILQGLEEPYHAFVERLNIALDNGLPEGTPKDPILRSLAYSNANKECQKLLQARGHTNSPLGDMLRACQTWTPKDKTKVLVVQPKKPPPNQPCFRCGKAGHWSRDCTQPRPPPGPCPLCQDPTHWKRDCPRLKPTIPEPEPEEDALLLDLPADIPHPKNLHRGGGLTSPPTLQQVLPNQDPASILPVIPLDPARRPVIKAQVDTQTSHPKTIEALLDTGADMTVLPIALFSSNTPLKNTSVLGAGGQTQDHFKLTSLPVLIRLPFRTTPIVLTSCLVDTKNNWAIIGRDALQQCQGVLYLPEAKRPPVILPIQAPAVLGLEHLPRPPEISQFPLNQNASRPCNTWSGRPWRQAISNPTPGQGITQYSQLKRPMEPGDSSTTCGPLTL

[2] = biological target: Human immunodeficiency virus type 1 protease (Human immunodeficiency virus 1) (UniProt Q72874); test: Percent inhibition of human immunodeficiency virus type I (HIV-1) protease was determined at 50 uM concentration
[3] = biological target: T1, Gag-Pro polyprotein (Human T-cell leukemia virus 1 (strain Japan ATK-1 subtype A) (HTLV-1)); test: Percent inhibition of recombinant human T-cell leukemia virus type I (HTLV-1) protease was determined at 100 uM concentration; settings: human T-cell leukemia virus type 1
[4] = biological target: T1, Gag-Pro polyprotein (Human T-cell leukemia virus 1 (strain Japan ATK-1 subtype A) (HTLV-1)); test: Percent inhibition of recombinant human T-cell leukemia virus type I (HTLV-1) protease was determined at 50 uM concentration; settings: Human T-cell lymphotrophic virus type 1 (strain ATK)
[5] = biological target: T1, Gag-Pro polyprotein (Human T-cell leukemia virus 1 (strain Japan ATK-1 subtype A) (HTLV-1)); test: Percent inhibition of synthesized human T-cell leukemia virus type I (HTLV-1) protease was determined at 50 uM concentration; settings: Human T-cell lymphotrophic virus type 1 (strain ATK)
Gag-Pro polyprotein [6] = biological target: T2, Gag-Pro polyprotein (Human T-cell leukemia virus 1 (strain Japan ATK-1 subtype A) (HTLV-1), UniProt P10274); test: Inhibitory binding affinity towards synthesized human T-cell leukemia virus type I (HTLV-1) protease; set-up: species or system human T-cell leukemia virus type 1
T2 sequence (P10274 whole entry): T1 sequence (whole entry)

Gag-Pro polyprotein [7] = biological target: T2, Gag-Pro polyprotein; test: Inhibitory binding affinity towards recombinant human T-cell leukemia virus type I (HTLV-1) protease; set-up: species or system human T-cell leukemia virus type 1

| inhibition [1] [%] | inhibition [3] [%] | SMILES | inhibition [2] [%] | inhibition [4] [%] | inhibition [5] [%] | Ki (Gag-Pro polyprotein [6]) [µM] | Ki (Gag-Pro polyprotein [7]) [µM] |
| --- | --- | --- | --- | --- | --- | --- | --- |
| 20 | 20 | CC(C)c1nc(CN(C)C(=O)N[C@H](C(=O)N[C@@H](Cc2ccccc2)C[C@H](O)[C@H](Cc2ccccc2)NC(=O)OCc2cncs2)C(C)C)cs1 | 100 | – | – | – | – |
| 57 | 38 | Cc1c(O)cccc1C(=O)NC(Cc1ccccc1)C(O)C(=O)N1CSC(C)(C)C1C(=O)NC(C)(C)C (stereo not drawn) | 88 | – | – | – | – |
| 32 | 43 | Cc1cccc(C)c1OCC(=O)NC(Cc1ccccc1)C(O)C(=O)N1CSC(C)(C)C1C(=O)NC(C)(C)C (stereo not drawn) | 96 | – | – | – | – |
| 11 | 19 | Cc1ccccc1CNC(=O)C1N(C(=O)C(O)C(Cc2ccccc2)NC(=O)COc2c(C)cccc2C)CSC1(C)C (stereo not drawn) | 98 | – | – | – | – |
| 79 | 31 | Cc1ccccc1CNC(=O)C1N(C(=O)C(O)C(Cc2ccccc2)NC(=O)c2cccc(O)c2C)CSC1(C)C (stereo not drawn) | 96 | – | – | – | – |
| – | – | CSCC[C@H](NC(=O)[C@@H](NC(=O)[C@H]1N(C(=O)C(O)[C@H](Cc2ccccc2)NC(=O)[C@@H](NC(=O)[C@H](CCC(N)=O)NC(=O)[C@@H]2CCCN2)C(C)C)CSC1(C)C)C(C)C)C(=O)N[C@@H](Cc1cnc[nH]1)C(=O)O (stereo partly drawn) (H-PQV[X1][Thz(5,5-Me2)]VMH-OH) | – | – | – | 2 | 3.9 |
| – | – | CC(C)CC(=O)N[C@H](C(=O)N[C@H](C(=O)N[C@@H](CC(C)C)[C@@H](O)CC(=O)N[C@@H](C)C(=O)N[C@@H](CC(C)C)[C@@H](O)CC(=O)O)C(C)C)C(C)C [PEPSTATIN] | 23 | 17 | 15 | 36.5 | 14.6 |

| SMILES | inhibition [1] [%] | inhibition [3] [%] | inhibition [2] [%] | inhibition [4] [%] | inhibition [5] [%] | Ki (Gag-Pro polyprotein [6]) [µM] | Ki (Gag-Pro polyprotein [7]) [µM] |
| --- | --- | --- | --- | --- | --- | --- | --- |
| CSCC[C@H](NC(=O)[C@@H](NC(=O)[C@@H]1CCCN1C(=O)C(O)[C@H](Cc1ccccc1)NC(=O)[C@@H](NC(=O)[C@H](CCC(N)=O)NC(=O)[C@@H]1CCCN1)C(C)C)C(C)C)C(=O)N[C@@H](Cc1c[nH]cn1)C(=O)O (stereo partly drawn) (H-PQV[X1]PVMH-OH) | – | 94 | 6 | 54 | 59 | – | – |
| CSCC[C@H](NC(=O)[C@@H](NC(=O)[C@H]1N(C(=O)C(O)[C@H](Cc2ccccc2)NC(=O)[C@@H](NC(=O)[C@H](CCC(N)=O)NC(=O)[C@@H]2CCCN2)C(C)C)CSC1(C)C)C(C)C)C(=O)N[C@@H](Cc1c[nH]cn1)C(=O)O (stereo partly drawn) (H-PQV[X1][Thz(5,5-Me2)]VMH-OH) | – | 100 | 58 | 66 | 80 | – | – |
| CSCC[C@H](NC(=O)[C@@H](NC(=O)[C@@H]1CCCN1C(=O)C(O)[C@H](CC(C)C)NC(=O)[C@@H](NC(=O)[C@H](CCC(N)=O)NC(=O)[C@@H]1CCCN1)C(C)C)C(C)C)C(=O)N[C@@H](Cc1c[nH]cn1)C(=O)O (stereo partly drawn) (H-PQV[X2]PVMH-OH) | – | 93 | 3 | 43 | 58 | – | – |
| CSCC[C@H](NC(=O)[C@@H](NC(=O)[C@H]1N(C(=O)C(O)[C@H](CC(C)C)NC(=O)[C@@H](NC(=O)[C@H](CCC(N)=O)NC(=O)[C@@H]2CCCN2)C(C)C)CSC1(C)C)C(C)C)C(=O)N[C@@H](Cc1c[nH]cn1)C(=O)O (stereo partly drawn) (H-PQV[X2][Thz(5,5-Me2)]VMH-OH) | – | 100 | 37 | 63 | 76 | – | – |
